Measured values published in US12077503B2, “Substituted cyclic amides and their use as herbicides” (FMC CORPORATION, priority 2015, dated 2024).

Key:
Type in all cases: in vivo
[1] = tested on: giant foxtail (Setaria faberii); assay: Test A preemergence; conditions: Setaria faberi, pre-emergence, 240 h; for pest or weed control at 125 g/ha: 125 g ai/ha, visual injury after approximately 10 d, 0 to 100 scale where 0 is no effect and 100 is complete control; for pest or weed control at 500 g/ha: 500 g ai/ha
How it was run: (§1)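 Seeds sprayed preemergence with a directed soil spray, or plants at 2 to 10 cm height and one- to two-leaf stage sprayed postemergence, with test chemicals in a non-phytotoxic solvent mixture containing surfactant, in loam soil–sand blend. Injury rated visually against untreated controls after about 10 d in greenhouse, 0 (no effect) to 100 (complete control).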

[2] = tested on: blackgrass (Alopecurus myosuroides); assay: Test A postemergence; conditions: Alopecurus myosuroides, post-emergence, 240 h, read-out: Plant response rating, Blackgrass; for pest or weed control at 125 g/ha: 125 g ai/ha, postemergence, visual rating after approx. 10 d, 0 to 100 scale (0 no effect, 100 complete control); for pest or weed control at 500 g/ha: Postemergence, 500 g ai/ha, 0 to 100 scale where 0 is no effect and 100 is complete control
How it was run: as §1

corn (Zea mays) = assay: Test A postemergence; conditions: Zea mays, post-emergence, 240 h; for Corn plant response rating (crop injury, 0 = no effect, 100 = complete kill) at 125 g/ha: 125 g ai/ha, postemergence, visual rating after approx. 10 d, 0 to 100 scale (0 no effect, 100 complete control); for Corn plant response rating (crop injury, 0 = no effect, 100 = complete kill) at 500 g/ha: Postemergence, 500 g ai/ha, 0 to 100 scale where 0 is no effect and 100 is complete control
How it was run: as §1

[3] = tested on: wheat (Triticum aestivum); assay: Test A postemergence; conditions: Triticum aestivum, post-emergence, 240 h, read-out: Plant response rating, Wheat; for plant injury at 125 g/ha: 125 g ai/ha, postemergence, visual rating after approx. 10 d, 0 to 100 scale (0 no effect, 100 complete control); for plant injury at 500 g/ha: Postemergence, 500 g ai/ha, 0 to 100 scale where 0 is no effect and 100 is complete control
How it was run: as §1

Kochia (Kochia scoparia) = assay: Test A postemergence; conditions: Bassia scoparia, post-emergence, 240 h, read-out: Plant response rating, Kochia; for pest or weed control at 125 g/ha: 125 g ai/ha, postemergence, visual rating after approx. 10 d, 0 to 100 scale (0 no effect, 100 complete control); for pest or weed control at 500 g/ha: Postemergence, 500 g ai/ha, 0 to 100 scale where 0 is no effect and 100 is complete control
How it was run: as §1

[4] = tested on: Galium (catchweed bedstraw, Galium aparine); assay: Test A postemergence; conditions: Galium, post-emergence, 240 h, read-out: Plant response rating, Galium; for pest or weed control at 125 g/ha: 125 g ai/ha, postemergence, visual rating after approx. 10 d, 0 to 100 scale (0 no effect, 100 complete control); for pest or weed control at 500 g/ha: Postemergence, 500 g ai/ha, 0 to 100 scale where 0 is no effect and 100 is complete control
How it was run: as §1

[5] = tested on: giant foxtail (Setaria faberii); assay: Test A postemergence; conditions: Setaria faberi, post-emergence, 240 h, read-out: Plant response rating, Foxtail, Giant; for pest or weed control at 125 g/ha: 125 g ai/ha, postemergence, visual rating after approx. 10 d, 0 to 100 scale (0 no effect, 100 complete control); for pest or weed control at 500 g/ha: Postemergence, 500 g ai/ha, 0 to 100 scale where 0 is no effect and 100 is complete control
How it was run: as §1

[6] = tested on: barnyardgrass (Echinochloa crus-galli); assay: Test A postemergence; conditions: Echinochloa crus-galli, post-emergence, 240 h, read-out: Plant response rating, Barnyardgrass; for pest or weed control at 125 g/ha: 125 g ai/ha, postemergence, visual rating after approx. 10 d, 0 to 100 scale (0 no effect, 100 complete control); for pest or weed control at 500 g/ha: Postemergence, 500 g ai/ha, 0 to 100 scale where 0 is no effect and 100 is complete control
How it was run: as §1

[7] = tested on: pigweed (Amaranthus retroflexus); assay: Test A postemergence; conditions: Amaranthus retroflexus, post-emergence, 240 h, read-out: Plant response rating, Pigweed; for pest or weed control at 125 g/ha: 125 g ai/ha, postemergence, visual rating after approx. 10 d, 0 to 100 scale (0 no effect, 100 complete control); for pest or weed control at 500 g/ha: Postemergence, 500 g ai/ha, 0 to 100 scale where 0 is no effect and 100 is complete control
How it was run: as §1

[8] = tested on: ryegrass, Italian (Italian ryegrass, Lolium multiflorum); assay: Test A postemergence; conditions: Lolium multiflorum, post-emergence, 240 h, read-out: Plant response rating, Ryegrass, Italian; for pest or weed control at 125 g/ha: 125 g ai/ha, postemergence, visual rating after approx. 10 d, 0 to 100 scale (0 no effect, 100 complete control); for pest or weed control at 500 g/ha: Postemergence, 500 g ai/ha, 0 to 100 scale where 0 is no effect and 100 is complete control
How it was run: as §1

[9] = tested on: ragweed (common ragweed, Ambrosia elatior); assay: Test A postemergence; conditions: Ambrosia artemisiifolia, post-emergence, 240 h, read-out: Plant response rating, Ragweed; for pest or weed control at 125 g/ha: 125 g ai/ha, postemergence, visual rating after approx. 10 d, 0 to 100 scale (0 no effect, 100 complete control); for pest or weed control at 500 g/ha: Postemergence, 500 g ai/ha, 0 to 100 scale where 0 is no effect and 100 is complete control
How it was run: as §1

[10] = tested on: barnyardgrass (Echinochloa crus-galli); assay: Test B flooded paddy test; conditions: Flood, 250 g ai/ha; 0 to 100 scale where 0 is no effect and 100 is complete control; 13 to 15 d
How it was run: (§2)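 Greenhouse paddy pots with 2-leaf stage plants received compound by direct addition to floodwater 3 cm deep, kept at that level. Scored visually at 13–15 d versus controls (0 no effect; 100 complete control).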

[11] = tested on: ducksalad (Heteranthera limosa); assay: Test B flooded paddy test; conditions: Flood, 250 g ai/ha; 0 to 100 scale where 0 is no effect and 100 is complete control; 13 to 15 d
How it was run: as §2

[12] = tested on: sedge, umbrella (small-flower umbrella sedge, Cyperus difformis); assay: Test B flooded paddy test; conditions: Flood, 250 g ai/ha; 0 to 100 scale where 0 is no effect and 100 is complete control; 13 to 15 d
How it was run: as §2

rice (Oryra sativa) = assay: Test B flooded paddy test; conditions: Flood, 250 g ai/ha; 0 to 100 scale where 0 is no effect and 100 is complete control; 13 to 15 d
How it was run: as §2

[13] = Preemergence, read-out: Plant response rating, Foxtail, Giant

Structure (SMILES)	pest or weed control at 125 g/ha [1, 13] [%]	pest or weed control at 125 g/ha [2] [%]	pest or weed control at 500 g/ha [2] [%]	Corn plant response rating (crop injury, 0 = no effect, 100 = complete kill) at 125 g/ha (corn (Zea mays)) [%]	Corn plant response rating (crop injury, 0 = no effect, 100 = complete kill) at 500 g/ha (corn (Zea mays)) [%]	plant injury at 125 g/ha [3] [%]	plant injury at 500 g/ha [3] [%]	pest or weed control at 125 g/ha (Kochia (Kochia scoparia)) [%]	pest or weed control at 500 g/ha (Kochia (Kochia scoparia)) [%]	pest or weed control at 125 g/ha [4] [%]	pest or weed control at 500 g/ha [4] [%]	pest or weed control at 125 g/ha [5] [%]	pest or weed control at 500 g/ha [5] [%]	pest or weed control at 125 g/ha [6] [%]	pest or weed control at 500 g/ha [6] [%]	pest or weed control at 125 g/ha [7] [%]	pest or weed control at 500 g/ha [7] [%]	pest or weed control at 125 g/ha [8] [%]	pest or weed control at 500 g/ha [8] [%]	pest or weed control at 125 g/ha [9] [%]	further results
CN1C[C@H](c2ccc(F)c(F)c2)[C@@H](C(=O)Nc2ccccc2F)C1=O [Compound 596, (3S,4S)-4-(3,4-difluorophenyl)-N-(2-fluorophenyl)-1-methyl-2-oxo-3-pyrrolidinecarboxamide]	100	20	50	20	60	0	50	40	60	30	50	90	90	90	90	0	20	0	40	0	pest or weed control at 500 g/ha ([1]; Preemergence, visual injury approx. 10 d, read-out: Foxtail, Giant plant response rating (0 to 100 scale, 0 is no effect, 100 is complete control)): 100%; pest or weed control at 500 g/ha [9]: 0%; Plant response rating, Barnyardgrass [10]: 95; Plant response rating, Ducksalad [11]: 100; Plant response rating, Sedge, Umbrella [12]: 0; Plant response rating, Rice (rice (Oryra sativa)): 0
CN1C[C@H](c2ccc(C(F)(F)F)cc2)[C@@H](C(=O)Nc2cccc(F)c2F)C1=O [Compound 623, (3S,4S)—N-(2,3-difluorophenyl)-1-methyl-2-oxo-4-[4-(trifluoromethyl)phenyl]-3-pyrrolidinecarboxamide]	90	50	60	60	70	40	70	40	70	50	60	90	90	90	90	60	60	30	60	20	pest or weed control at 500 g/ha ([1]; preemergence, 0 to 100 scale, 0 = no effect, 100 = complete control, read-out: Plant response rating, Foxtail, Giant): 90%; pest or weed control at 500 g/ha [9]: 0%; Plant response rating, Barnyardgrass [10]: 40; Plant response rating, Ducksalad [11]: 50; Plant response rating, Sedge, Umbrella [12]: 0; Plant response rating, Rice (rice (Oryra sativa)): 0
